“Also recorded” adds a separate entry of the source. Where a SMILES comes first, the peptide text is derived from it. The star is where a group is joined. Cbz = O=C(OCc1ccccc1)*; CH2F = FC*
Experiments:
[1] = system: engineered MDA-MB-468 human breast cancer cells; assay: TUNEL assay with flow cytometry on engineered cells; type: cell-based; conditions: 2 μM inhibitor added 6 hours after doxycycline, 24 hr total
Protocol: TUNEL assay on engineered MDA-MB-468 human breast cancer cells after 24 hours of exposure to 2 μg/ml Doxycycline.
(§1) Furthermore, using a specific inhibitor for caspase 8 eliminated the death induced by the C-terminal p53 palindromic tetrapeptide expression. The cleavage of the DNA repair signal protein poly-adenosyl-ribose polymerase (PARP), a key indicator of apoptosis, was also observed with the C-terminal p53 palindromic tetramer expression (FIGS. 5 and 6). Finally, one of the later events to occur as cells are undergoing apoptosis is the endonuclease cleavage of chromatin DNA at the DNA linker site between nucleosomes. These DNA fragments can be end-labeled with fluorescent-dUTP with the use of terminal deoxynucleotidyl transferase. This technique, called TUNEL, is extremely sensitive for the detection of apoptosis. We used a commercial TUNEL assay (Medical & Biological Labs, Nagoya, Japan) with flow cytometry to examine these engineered cells. By this assay, 80% of the cells were killed with induction of the 4 repeat by doxycycline treatment (FIG. 7). Furthermore, by using a specific inhibitor for caspase 8, IETD-FMK ([…], Nagoya, Japan), death induced by the C-terminal p53 palindromic peptide expression (FIG. 7) was eliminated. All of these findings support an apoptotic mechanism of cell death by this peptide.

[2] = system: MDA-MB-468 human breast cancer cells; assay: Propidium iodide staining / flow cytometry (sub-G1) of cells exposed to purified peptide; type: cell-based; conditions: 30 uM peptide, 6 hours
Protocol: Effects of the C-Terminal p53 Palindromic Tetrapeptide on Cells in Culture. MDA-MB-468 human breast cancer cells were grown in culture and exposed for 6 hours with no peptide (control) or with 30 μM of either the single p53 C-terminal peptide fused to the Ant carrier (p53-Ant) or with the His tagged p53 palindromic tetrapeptide fused to the Ant carrier (4 Repeat). The DNA within the cells was then stained with propidium iodide and cell particles were assayed by flow cytometry. The percent within each graph represents the percent cell particles with less than a diploid amount of DNA, indicative of apoptotic cells (sub G1 population).
In order to test the effect of the C-terminal p53 palindromic peptide cloned in E. Coli on cells in culture, the purified peptide was incubated at 30 μM with the human breast cancer cell line MDA-MB-468, and the effects compared to original monomer or single C-terminal peptide. Prior experiments had shown that exposure at this concentration was less than the IC50 for the original peptide. […] The DNA content was then quantified by flow cytometry in a FACSCalibur Cell Sorter (BD Bioscience, San Diego, Calif.). Cell cycle profiles were obtained, and the percentage of cells containing less than the diploid amount of DNA, indicative of cell undergoing cell death by apoptosis (sub-G1 peak), was quantified (FIG. 3).

[3] = system: p53 responsive proteins (Bax, Fas, caspase 8) and PARP in engineered MDA-MB-468 cells; assay: Immunoblot of p53 responsive proteins and PARP cleavage after doxycycline induction; type: cell-based, human; conditions: for Bax expression: doxycycline 2 μg/ml, 12, 36 and 48 hours; for PARP cleavage product: after 4-repeat induction with doxycycline
Protocol: Changes in the protein expression levels for the pro-apoptotic protein Bax, an active p53 responsive gene, induced by exposure to the tetracycline analog doxycycline (2 μg/ml) for 12, 36 and 48 hours. Engineered MDA-MB-468 cells were collected after the indicated exposure times and the total protein was extracted, an aliquot was run on a 12% acrylamide/SDS PAGE gel, and blotted onto nitrocellulose membranes. Antibodies specific for Bax, the 4-repeat (p53) and PARP were used to determine expression levels and α-tubulin was used as a loading control.
Changes in the protein expression levels for the p53 responsive genes encoding Fas and caspase 8, 24 hours after the engineered MDA-MB-468 cells were exposed to the indicated concentrations of doxycycline. A PARP cleavage product is also shown. α-tubulin was used as a loading control.
For the tetracycline-inducible peptide systems in MDA-MB-468 cells, cells were exposed to various concentrations of doxycycline for 24-48 hours and cell death measured by trypan blue exclusion (only dying cells are permeable to this dye) and propidium iodide staining (as above, in cells undergoing apoptosis DNA is cleaved so less PI can be bound resulting in accumulation of a sub-G1 peak of cells on flow cytometry). […] This implies a unique difference between the monomer and the 4 repeat.
as §1

MDA-MB-468 cells [4] = assay: Trypan blue exclusion in tetracycline-inducible peptide-expressing cells; type: cell-based, human; conditions: doxycycline induction 24-48 hours
Text: The MDA-MB-468 breast cancer cell line which expresses high levels of mutant p53 (Arg to His substitution at amino acid 273, one of the two most common p53 mutations in human cancers) was chosen as the model system. The tetracycline-inducible RevTet-On System (Clontech Laboratories, Palo Alto, Calif.) was used for these studies. Stably expressed reverse tetracycline-controlled transactivator (rtTA), under the control of a CMV promoter, was first established in the MDA-MB-468 cell line. Initially immunoblots with an antibody against the transactivator were used to identify high expression; subsequently a luciferase reporter system was used to identify highly inducible clones. This assay incorporated a luciferase reporter (Promega, Madison, Wis.) with the inducible pREvTRE vector of the RevTet-On system to measure the ability of tetracycline to induce luciferase activity. […]
(§2) For the tetracycline-inducible peptide systems in MDA-MB-468 cells, cells were exposed to various concentrations of doxycycline for 24-48 hours and cell death measured by trypan blue exclusion (only dying cells are permeable to this dye) and propidium iodide staining (as above, in cells undergoing apoptosis DNA is cleaved so less PI can be bound resulting in accumulation of a sub-G1 peak of cells on flow cytometry). […]

MDA-MB-468 cells [5] = assay: Propidium iodide staining / flow cytometry (sub-G1) in tetracycline-inducible peptide-expressing cells; type: cell-based, human
Protocol: Effects of endogenous, regulated expression of the 4 repeat peptide on cell viability. MDA-MB-468 cells engineered to express the palindromic p53 4 repeat peptide under the control of a tetracycline responsive promoter were cultured without or with the addition of 2 μg/ml doxycycline, an analog of tetracycline, for 24, 48 or 72 hours. Cells were collected, fixed in ice cold 70% ethanol and the DNA was stained with propidium iodide. Cell cycle profiles were obtained by flow cytometry and the percent of sub-G1 cell particles, indicative of apoptosis, was quantified.
The MDA-MB-468 breast cancer cell line which expresses high levels of mutant p53 (Arg to His substitution at amino acid 273, one of the two most common p53 mutations in human cancers) was chosen as the model system. The tetracycline-inducible RevTet-On System (Clontech Laboratories, Palo Alto, Calif.) was used for these studies. […]
as §2

9L rat glioma = assay: Survival of rats with intracerebral 9L glioma infused with adenovirus; type: in vivo, male fischer rats; conditions: concluding statement of rat glioma study
Protocol: Survival analysis of male rats initially injected with 5 μl of 10^5 9L cells over […] (Tumor implantation) through a catheter stereotactically inserted into the right caudate nucleus. These rats were subsequently infused with 7-8 μl volumes per day over 3 hours a day for a total of 7 days in three groups as follows: 2 rats received phosphate buffered saline (PBS control) solution, 3 rats received Ad/vector control virus (Empty Virus Control), and 10 rats received Ad/4-rep-p53p adenovirus containing the tetrapeptide C-terminal p53 peptide.) The average survival time for the groups were: 20 days for the PBS control group, 27 days for the adenovirus vector control group (23.25 days for the combined control groups) and 37.25 days for the Ad/4-rep-p53p Adenovirus treated group. Thus, the treatment group infected with the adenovirus containing the C-terminal palindromic tetrapeptide experienced an 86% increase in survival compared to the PBS controls and a 60% increase in survival compared to the combined controls. […]
For animal studies, 15 male fischer rats (age 12-14 weeks, 250 g) were anesthetized, and a 20 gauge plastic guide cannula was cemented into their skulls. […] The rats were monitored for an additional 44 days to determine differences in survival among groups.

[6] = system: normal cells including the pluripotent stem cells for granulocytes, erythrocytes, monocytes and macrophages; assay: Effect on normal cells; type: cell-based
MDA-MB-468 tumors = assay: Inducible expression in MDA-MB-468 tumors in athymic nude mice; type: in vivo; conditions: doxycycline 0.5 mg/ml in drinking water; described in present tense
Protocol: Four groups of ten animals each are used. Groups 1 and 2 are injected with one million MDA-MB-468 cells containing the inducibly expressible palindromic tetramer in 0.5 ml of basement membrane media. Groups 3 and 4 are injected with one million MDA-MB-468 cells containing the inducibly expressible GFP. The tumors are allowed to develop to a measurable state (approximately 2-3 weeks). Then groups 1 and 3 are given 0.5 mg/ml doxycycline in their drinking water, and groups 2 and 4 are given drinking water without doxycycline. Tumor sizes are measured daily. Animals are then euthanized and the tumors removed for analysis. Tumor sections are assayed for levels of apoptosis by DNA cleavage assay (TUNEL) and activation of caspases and cleavage of PARP.

| Molecule | effect of caspase 8 inhibitor on death/TUNEL shift induced by palindromic peptide expression [1] | cell death (PI staining, sub-G1 population) [2] | Bax expression [3] | decrease in viability (trypan blue exclusion) (MDA-MB-468 cells [4]) | cell death (sub-G1 peak, propidium iodide staining) (MDA-MB-468 cells [5]; after doxycycline induction, stably expressing cell lines) | apoptosis (propidium iodide staining and flow cytometry) (MDA-MB-468 cells [5]; doxycycline induction, FIG. 4) | Fas expression ([3]; 24 hours doxycycline) | caspase 8 expression ([3]; 24 hours doxycycline) | PARP cleavage product [3] | PARP cleavage product ([3]; listed as C-terminal p53 palindromic tetramer) | apoptosis of cancer cells in animals (9L rat glioma) | effect on normal cells [6] | apoptosis of cancer cells in animals (MDA-MB-468 tumors) |
| --- | --- | --- | --- | --- | --- | --- | --- | --- | --- | --- | --- | --- | --- |
| CC[C@H](C)[C@H](NC(=O)OCc1ccccc1)C(=O)N[C@@H](CCC(=O)OC)C(=O)N[C@H](C(=O)N[C@@H](CC(=O)OC)C(=O)CF)[C@@H](C)O [IETD-FMK] (Cbz-IE(OMe)TD(OMe)-CH2F) | no shift occurs; also recorded: eliminated |  |  |  |  |  |  |  |  |  |  |  |  |
| CSCC[C@H](NC(=O)[C@H](CCCCN)NC(=O)[C@H](Cc1c[nH]c2ccccc12)NC(=O)[C@H](CCCCN)NC(=O)[C@H](CCCCN)NC(=O)[C@H](CCCCN)NC(=O)[C@H](CCCCN)NC(=O)[C@H](Cc1c[nH]cn1)NC(=O)[C@H](CCCNC(=N)N)NC(=O)[C@H](CO)NC(=O)[C@@H](NC(=O)[C@H](CO)NC(=O)[C@H](CCC(N)=O)NC(=O)CNC(=O)[C@H](CCCCN)NC(=O)[C@H](CCCCN)NC(=O)[C@H](CO)NC(=O)[C@H](CCCCN)NC(=O)[C@H](CC(C)C)NC(=O)[C@H](Cc1c[nH]cn1)NC(=O)[C@H](CO)NC(=O)[C@H](CO)NC(=O)[C@H](Cc1c[nH]cn1)NC(=O)[C@H](C)NC(=O)[C@H](CCCNC(=N)N)NC(=O)[C@H](CO)NC(=O)CN)[C@@H](C)O)C(=O)N[C@@H](CCCNC(=N)N)C(=O)N[C@@H](CCCNC(=N)N)C(=O)N[C@@H](CC(N)=O)C(=O)N[C@@H](CCC(N)=O)C(=O)N[C@@H](Cc1ccccc1)C(=O)N[C@@H](Cc1c[nH]c2ccccc12)C(=O)N[C@H](C(=O)N[C@@H](CCCCN)C(=O)N[C@H](C(=O)N[C@@H](CCC(N)=O)C(=O)N[C@@H](CCCNC(=N)N)C(=O)NCC(=O)O)C(C)C)C(C)C [p53 C-terminal peptide (single repeat), reference compound] (H-GSRAHSSHLKSKKGQSTSRHKKKKWKMRRNQFWVKVQRG-OH; N-terminus and C-terminus assumed) |  | 23% | did not |  |  |  |  |  |  |  |  |  |  |
| p53 palindromic tetramer: C-terminal p53 palindromic tetrapeptide (four aa 353-393 segments, glycine-linked) expressed in cells from inducible or viral construct |  |  | increase in the expression | greater than 80% | 43% | greater than 40% | increase in the expression | increase in the expression | observed even 12 hours after | observed | found to induce apoptosis | no to minimal effect | found to induce apoptosis |

Source: patent US7772367B2, “C-terminal p53 palindromic peptide that induces apoptosis of cells with aberrant p53 and uses thereof” (The Trustees of Columbia University in the City of New York, priority 2004, dated 2010)
